Assay results as given in US7973055B2, “Crystalline forms of a biphenyl compound” (Theravance, Inc., priority 2006, dated 2011).

Columns and labels:
[1] = system: ACh-induced bronchoconstriction; assay: Duration of bronchoprotection in guinea pig model of acetylcholine-induced bronchoconstriction; format: in vivo; details: inhalation, 1.5 hours post-dose, expected
Description: Groups of six male guinea pigs (Duncan-Hartley (HsdPoc:DH) Harlan, Madison, Wis.) weighing between 250 and 350 g are individually identified by cage cards. Throughout the study, animals are allowed access to food and water ad libitum.
Test compounds are administered via inhalation over 10 minutes in a whole-body exposure dosing chamber (R&S Molds, San Carlos, Calif.). The dosing chambers are arranged so that an aerosol was simultaneously delivered to 6 individual chambers from a central manifold. Guinea pigs are exposed to an aerosol of a test compound or vehicle (WFI). […] This is measured gravimetrically by comparing pre-and post-nebulization weights of the filled nebulizer.
The bronchoprotective effects of test compounds administered via inhalation are evaluated using whole body plethysmography at 1.5, 24, 48 and 72 hours post-dose.
Forty-five minutes prior to the start of the pulmonary evaluation, each guinea pig is anesthetized with an intramuscular injection of ketamine (43.75 mg/kg), xylazine (3.50 mg/kg) and acepromazine (1.05 mg/kg). […] The depth of anesthesia is monitored and adjusted if the animal responds to pinching of its paw or if the respiration rate is greater than 100 breaths/minute. […]
Starting this program initiates the experimental protocol and data collection. […] By integrating this signal over time, a measurement of […] is calculated for each breath. […]

[2] = target: T1, M3 muscarinic receptor subtype (hM3) (Homo sapiens, UniProt P20309); assay: Radioligand binding assay ([3H]-NMS displacement, CHO cell membranes); details: [3H]-NMS 1 nM, this or a similar assay
T1 construct: expressed in transfected cells
Description: CHO cell lines stably expressing cloned human hM1, hM2, hM3 and hM4 muscarinic receptor subtypes, respectively, were grown to near confluency in medium consisting of HAM's F-12 supplemented with 10% FBS and 250 μg/mL Geneticin. The cells were grown in a 5% CO2, 37° C. incubator and lifted with 2 mM EDTA in dPBS. Cells were collected by 5 minute centrifugation at 650×g, and cell pellets were either stored frozen at −80° C. or membranes were prepared immediately. For membrane preparation, cell pellets were resuspended in lysis buffer and homogenized with a Polytron PT-2100 tissue disrupter (Kinematica AG; 20 seconds×2 bursts). Crude membranes were centrifuged at 40,000×g for 15 minutes at 4° C. […] The protein concentration of the membrane suspension was determined by the method described in Lowry, O. et al., Journal of Biochemistry 193:265 (1951). […]
Radioligand binding assays were performed in 96-well microtiter plates in a total assay volume of 100 μL. […] Filter plates were rinsed three times with wash buffer (10 mM HEPES) to remove unbound radioactivity. […] The plates were then counted in a PerkinElmer Topcount liquid scintillation counter (PerkinElmer Inc., Wellesley, Mass.). Binding data were analyzed by nonlinear regression analysis with the GraphPad Prism Software package (GraphPad Software, Inc., San Diego, Calif.) using the one-site competition model. […]

T1 sequence (P20309 whole entry): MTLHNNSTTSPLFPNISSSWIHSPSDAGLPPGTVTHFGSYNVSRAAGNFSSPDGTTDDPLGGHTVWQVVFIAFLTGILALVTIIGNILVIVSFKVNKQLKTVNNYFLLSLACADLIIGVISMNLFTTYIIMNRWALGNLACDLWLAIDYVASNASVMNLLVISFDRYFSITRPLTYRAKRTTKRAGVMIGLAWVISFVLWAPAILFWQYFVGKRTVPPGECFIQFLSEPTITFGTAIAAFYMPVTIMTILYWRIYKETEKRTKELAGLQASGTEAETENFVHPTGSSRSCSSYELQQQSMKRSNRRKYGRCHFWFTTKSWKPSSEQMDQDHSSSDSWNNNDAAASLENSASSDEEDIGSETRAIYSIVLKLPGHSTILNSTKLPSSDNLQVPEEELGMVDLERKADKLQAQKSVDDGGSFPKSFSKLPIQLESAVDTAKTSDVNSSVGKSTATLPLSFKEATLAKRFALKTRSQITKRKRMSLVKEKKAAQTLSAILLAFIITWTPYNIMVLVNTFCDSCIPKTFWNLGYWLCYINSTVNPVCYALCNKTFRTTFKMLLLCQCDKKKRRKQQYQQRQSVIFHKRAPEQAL

With `CN(CCN1CCC(OC(=O)Nc2ccccc2-c2ccccc2)CC1)C(=O)c1cccc(C(=O)NCCNCc2ccc(O)cc2)c1` [compound of formula I, biphenyl-2-ylcarbamic acid 1-[2-({3-[2-(4-hydroxybenzylamino)ethylcarbamoyl]benzoyl}methylamino)ethyl]piperidin-4-yl ester] the “PD2(50) for ACh-induced bronchoconstriction” value [1] was “less than 200 μg/mL” and the Ki [2] was under 5 nM.
